The results in this text go back to paper PMC7580997 (Journal of medicinal chemistry, 2019).

One data set can be described thus: Plasma stability. The data set is classed as in vitro ADME. As to conditions: mouse plasma 80% in PBS pH 7.4, 37 °C, 200 μM.
The target in another data set is HA-BIR3 of XIAP (Homo sapiens, UniProt P98170). Description: Western blot. The data set is classed as cell-based. The conditions noted are these: HEK293T, 10 μM, 6 h. A general note: In western blotting, separated proteins are transferred to a membrane and probed.
Sequence of HA-BIR3 of XIAP (P98170 253-347 limits assumed): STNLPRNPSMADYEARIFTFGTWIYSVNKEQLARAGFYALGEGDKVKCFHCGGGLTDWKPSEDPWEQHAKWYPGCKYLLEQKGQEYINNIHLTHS
The nature of data set [1]: Solubility and chemical stability in aqueous buffer by 1H 1D NMR. In kind it is physicochemical. As to conditions: aqueous buffer pH = 7.5, T = 25 °C.
The subject of another data set is SK-MEL-28 cells. As to the kind of experiment: IncuCyte S3 Caspase-3/7 apoptosis assay, SK-MEL-28. In kind it is cell-based, human. As to conditions: SK-MEL-28, co-treatment with TNFα, nanomolar concentration.
The subject of a further data set is A549 cells. As to the kind of experiment: IncuCyte S3 Caspase-3/7 apoptosis assay, A549. As to conditions: nanomolar concentration. In kind it is cell-based.
The next data set addresses BIR3 domain of cIAP1 (Homo sapiens, UniProt Q13490). Description: LC-MS of protein-compound covalent adduct, cIAP1-BIR3.

Sequence of BIR3 domain of cIAP1 (Q13490 258-363 limits assumed): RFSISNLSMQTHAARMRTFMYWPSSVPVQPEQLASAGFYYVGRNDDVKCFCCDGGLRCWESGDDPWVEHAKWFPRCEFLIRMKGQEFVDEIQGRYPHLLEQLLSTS

Turning to `CN[C@@H](C)C(=O)N[C@H]1CN(C(=O)CC(C)C)CC[C@H]2CC[C@@H](C(=O)NC(c3ccccc3)c3ccccc3)N2C1=O` [AT406], in “Plasma stability”, the “plasma stability t1/2” value is given as “similar”. Further, the “stabilization of HA-BIR3 in cell (western blot band intensity)” value at HA-BIR3 of XIAP is “stabilized the BIR3 domain”. Moreover, in data set [1], the “solubility in aqueous buffer (soluble up to)” value is listed as “similar”. Moreover, the “induction of apoptosis by co-treatment with TNFα” value was “Time- and dose-dependent apoptosis was restored” in the data set with SK-MEL-28 cells; “Time- and dose-dependent apoptosis was restored” in the data set on A549 cells.

Consider `CN[C@@H](C)C(=O)N[C@H](C(=O)N1CCC[C@H]1c1nc(C(=O)c2ccc(F)cc2)cs1)C1CCCCC1` [LCL161], for which, in the data set “Plasma stability”, the “plasma stability t1/2” value is recorded as “similar”. Also, the “stabilization of HA-BIR3 in cell (western blot band intensity)” value at HA-BIR3 of XIAP was “stabilized the BIR3 domain”. Further, the “solubility in aqueous buffer (soluble up to)” value in data set [1] was “similar”. The “induction of apoptosis by co-treatment with TNFα” value in the data set with SK-MEL-28 cells is “Time- and dose-dependent apoptosis was restored”; in the data set on A549 cells, “Time- and dose-dependent apoptosis was restored”.

`CN[C@@H](C)C(=O)N[C@@H](Cc1ccc(OS(=O)(=O)F)cc1)C(=O)N1CCC[C@H]1C(=O)N[C@@H]1CCc2c(F)cccc21` [Compound 1, 4-((S)-3-((S)-2-(((R)-4-fluoro-2,3-dihydro-1-H-inden-1-yl)carbamoyl)pyrrolidin-1yl)-2-((S)-2-(methylamino)propanamido)-3-oxopropyl)phenyl sulfurofluoridate]: at BIR3 domain of cIAP1, the “mass increase of cIAP1-BIR3 (covalent adduct)” value is recorded as “no increase in mass”.
